Test results from patent publication US20240343681A1, “MOLECULES HAVING PESTICIDAL UTILITY AND INTERMEDIATES AND PROCESSES RELATED THERETO” (priority 2021, published 2024).

Legend:
[1] = test system: Beet Armyworm (Spodoptera exigua, LAPHEG) second instar larva; assay: Bioassay on beet armyworm (BAW), 128-well diet tray assay; format: in vivo; conditions: 50 μg/cm^2 on artificial diet, 25° C., five days
Outline: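 Test molecule in 90:10 acetone–water applied at 50 μg/cm^2 onto 1 mL artificial diet and dried; one second-instar larva per well, eight wells. Held 5 days at 25 °C, 14:10 light–dark; percent mortality averaged over the eight wells.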

[2] = test system: Yellow Fever Mosquito (Aedes aegypti, AEDSAE) larvae; assay: Bioassay on yellow fever mosquito (YFM), 96-well plate larval assay; format: in vivo; conditions: 4000 ppm (master plate solution), about 1 day-old larvae, 3 days
Experimental: Example B: Bioassays on Yellow Fever Mosquito (Aedes aegypti, AEDSAE) (“YFM”)
Master plates containing 400 μg of a molecule dissolved in 100 μL of dimethyl sulfoxide (DMSO) (equivalent to a 4000 ppm solution) are used. A master plate of assembled molecules contains 15 μL per well. To this plate, 135 μL of a 90:10 water/acetone mixture is added to each well. A robot (Biomek® NXP Laboratory Automation Workstation) is programmed to dispense 15 μL aspirations from the master plate into an empty 96-well shallow plate (“daughter” plate). There are 6 reps (“daughter” plates) created per master. The created “daughter” plates are then immediately infested with YFM larvae.
The day before plates are to be treated, mosquito eggs are placed in Millipore water containing liver powder to begin hatching (4 g into 400 mL). After the “daughter” plates are created using the robot, they are infested with 220 μL of the liver powder/larval mosquito mixture (about 1 day-old larvae). After plates are infested with mosquito larvae, a non-evaporative lid is used to cover the plate to reduce drying. Plates are held at room temperature for 3 days prior to grading. After 3 days, each well is observed and scored based on mortality.

O=C(Nc1cc(NC(=O)[C@H]2[C@H](c3cc(Cl)cc(Cl)c3)C2(Cl)Cl)ccc1Cl)c1ccno1 (racemic) [F35, trans-rac-N-(2-Chloro-5-(2,2-dichloro-3-(3,5-dichlorophenyl)cyclopropane-1-carboxamido)phenyl)isoxazole-5-carboxamide]
activity against BAW (percent mortality, averaged over eight wells) [1]: exhibited activity | activity against YFM (scored based on mortality) [2]: exhibited activity

COCC(=O)Nc1cc(NC(=O)[C@H]2[C@H](c3cc(Cl)cc(Cl)c3)C2(Cl)Cl)ccc1Cl (racemic) [F39, trans-rac-2,2-Dichloro-N-(4-chloro-3-(2-methoxyacetamido)phenyl)-3-(3,5-dichlorophenyl)cyclopropane-1-carboxamide]
activity against BAW (percent mortality, averaged over eight wells) [1]: exhibited activity | activity against YFM (scored based on mortality) [2]: exhibited activity

CCOC(C)C(=O)Nc1cc(NC(=O)C2C(c3cc(Cl)cc(Cl)c3)C2(Cl)Cl)ccc1Cl (racemic) [F40, trans-rac-2,2-dichloro-N-(4-chloro-3-(2-ethoxypropanamido)phenyl)-3-(3,5-dichlorophenyl)cyclopropane-1-carboxamide]
activity against BAW (percent mortality, averaged over eight wells) [1]: exhibited activity | activity against YFM (scored based on mortality) [2]: exhibited activity

N#CCC(=O)Nc1cc(NC(=O)[C@H]2[C@H](c3cc(Cl)cc(Cl)c3)C2(Cl)Cl)ccc1Cl (racemic) [F42, trans-rac-2,2-Dichloro-N-(4-chloro-3-(2-cyanoacetamido)phenyl)-3-(3,5-dichlorophenyl)cyclopropanecarboxamide]
activity against BAW (percent mortality, averaged over eight wells) [1]: exhibited activity | activity against YFM (scored based on mortality) [2]: exhibited activity

O=C(Cc1ccccc1)Nc1cc(NC(=O)[C@H]2[C@H](c3cc(Cl)cc(Cl)c3)C2(Cl)Cl)ccc1Cl (racemic) [F48, trans-rac-2,2-Dichloro-N-(4-chloro-3-(2-phenylacetamido)phenyl)-3-(3,5-dichlorophenyl)cyclopropane-1-carboxamide]
activity against BAW (percent mortality, averaged over eight wells) [1]: exhibited activity | activity against YFM (scored based on mortality) [2]: exhibited activity

O=C(CN1CCOCC1)Nc1cc(NC(=O)[C@H]2[C@H](c3cc(Cl)cc(Cl)c3)C2(Cl)Cl)ccc1Cl (racemic) [F50, trans-rac-2,2-Dichloro-N-(4-chloro-3-(2-morpholinoacetamido)phenyl)-3-(3,5-dichlorophenyl)cyclopropane-1-carboxamide]
activity against BAW (percent mortality, averaged over eight wells) [1]: exhibited activity | activity against YFM (scored based on mortality) [2]: exhibited activity

O=C(Nc1ccc(Cl)c(NC(=O)C(F)(F)F)c1)[C@H]1[C@H](c2cc(Cl)cc(Cl)c2)C1(Cl)Cl (racemic) [F53, trans-rac-2,2-dichloro-N-(4-chloro-3-(2,2,2-trifluoroacetamido)phenyl)-3-(3,5-dichlorophenyl)cyclopropane-1-carboxamide]
activity against BAW (percent mortality, averaged over eight wells) [1]: exhibited activity | activity against YFM (scored based on mortality) [2]: exhibited activity

O=C(Nc1ccc(Cl)c(NC(=O)C(F)(F)Cl)c1)[C@H]1[C@H](c2cc(Cl)cc(Cl)c2)C1(Cl)Cl (racemic) [F54, trans-rac-2,2-Dichloro-N-(4-chloro-3-(2-chloro-2,2-difluoroacetamido)phenyl)-3-(3,5-dichlorophenyl)cyclopropane-1-carboxamide]
activity against BAW (percent mortality, averaged over eight wells) [1]: exhibited activity | activity against YFM (scored based on mortality) [2]: exhibited activity

O=C(Nc1ccc(Cl)c(NC(=O)C(F)(F)C(F)(F)C(F)(F)F)c1)[C@H]1[C@H](c2cc(Cl)cc(Cl)c2)C1(Cl)Cl (racemic) [F56, trans-rac-2,2-Dichloro-N-(4-chloro-3-(2,2,3,3,4,4,4-heptafluorobutanamido)phenyl)-3-(3,5-dichlorophenyl)cyclopropane-1-carboxamide]
activity against BAW (percent mortality, averaged over eight wells) [1]: exhibited activity | activity against YFM (scored based on mortality) [2]: exhibited activity

CCC(F)(F)C(=O)Nc1cc(NC(=O)[C@H]2[C@H](c3cc(Cl)cc(Cl)c3)C2(Cl)Cl)ccc1Cl (racemic) [F58, trans-rac-2,2-Dichloro-N-(4-chloro-3-(2,2-difluorobutanamido)phenyl)-3-(3,5-dichlorophenyl)cyclopropane-1-carboxamide]
activity against BAW (percent mortality, averaged over eight wells) [1]: exhibited activity | activity against YFM (scored based on mortality) [2]: exhibited activity

Cc1cc(C#N)ccc1C(=O)Nc1cc(NC(=O)[C@H]2[C@H](c3cc(Cl)cc(Cl)c3)C2(Cl)Cl)ccc1F (racemic) [F60, trans-rac-4-Cyano-N-(5-(2,2-dichloro-3-(3,5-dichlorophenyl)cyclopropane-1-carboxamido)-2-fluorophenyl)-2-methylbenzamide]
activity against BAW (percent mortality, averaged over eight wells) [1]: exhibited activity | activity against YFM (scored based on mortality) [2]: exhibited activity

O=C(Nc1cc(NC(=O)[C@H]2[C@H](c3cc(Cl)cc(Cl)c3)C2(Cl)Cl)ccc1F)c1c(F)cccc1F (racemic) [F61, trans-rac-N-(5-(2,2-Dichloro-3-(3,5-dichlorophenyl)cyclopropane-1-carboxamido)-2-fluorophenyl)-2,6-difluorobenzamide]
activity against BAW (percent mortality, averaged over eight wells) [1]: exhibited activity | activity against YFM (scored based on mortality) [2]: exhibited activity

O=C(Nc1cc(NC(=O)[C@H]2[C@H](c3cc(Cl)cc(Cl)c3)C2(Cl)Cl)ccc1F)c1cc(F)cc(F)c1 (racemic) [F62, trans-rac-N-(5-(2,2-Dichloro-3-(3,5-dichlorophenyl)cyclopropane-1-carboxamido)-2-fluorophenyl)-3,5-difluorobenzamide]
activity against BAW (percent mortality, averaged over eight wells) [1]: exhibited activity | activity against YFM (scored based on mortality) [2]: exhibited activity

CC(CC(=O)Nc1cc(NC(=O)C2C(c3cc(Cl)cc(Cl)c3)C2(Cl)Cl)ccc1F)C(F)(F)F (racemic) [F64, trans-rac-2,2-Dichloro-3-(3,5-dichlorophenyl)-N-(4-fluoro-3-(4,4,4-trifluoro-3-methylbutanamido)phenyl)cyclopropane-1-carboxamide]
activity against BAW (percent mortality, averaged over eight wells) [1]: exhibited activity | activity against YFM (scored based on mortality) [2]: exhibited activity

O=C(Nc1cc(NC(=O)[C@H]2[C@H](c3cc(Cl)cc(Cl)c3)C2(Cl)Cl)ccc1Cl)c1ccc(F)c(F)c1 (racemic) [F67, trans-rac-N-(2-Chloro-5-(2,2-dichloro-3-(3,5-dichlorophenyl)cyclopropane-1-carboxamido)phenyl)-3,4-difluorobenzamide]
activity against BAW (percent mortality, averaged over eight wells) [1]: exhibited activity | activity against YFM (scored based on mortality) [2]: exhibited activity

O=C(Nc1cc(NC(=O)[C@H]2[C@H](c3cc(Cl)cc(Cl)c3)C2(Cl)Cl)ccc1Cl)c1cccc(F)c1F (racemic) [F68, trans-rac-N-(2-Chloro-5-(2,2-dichloro-3-(3,5-dichlorophenyl)cyclopropane-1-carboxamido)phenyl)-2,3-difluorobenzamide]
activity against BAW (percent mortality, averaged over eight wells) [1]: exhibited activity | activity against YFM (scored based on mortality) [2]: exhibited activity

O=C(Nc1cc(NC(=O)[C@H]2[C@H](c3cc(Cl)cc(Cl)c3)C2(Cl)Cl)ccc1Cl)c1cc(F)ccc1F (racemic) [F69, trans-rac-N-(2-Chloro-5-(2,2-dichloro-3-(3,5-dichlorophenyl)cyclopropane-1-carboxamido)phenyl)-2,5-difluorobenzamide]
activity against BAW (percent mortality, averaged over eight wells) [1]: exhibited activity | activity against YFM (scored based on mortality) [2]: exhibited activity

N#Cc1ccc(C(=O)Nc2cc(NC(=O)[C@H]3[C@H](c4cc(Cl)cc(Cl)c4)C3(Cl)Cl)ccc2Cl)cc1 (racemic) [F70, trans-rac-N-(2-Chloro-5-(2,2-dichloro-3-(3,5-dichlorophenyl)cyclopropane-1-carboxamido)phenyl)-4-cyanobenzamide]
activity against BAW (percent mortality, averaged over eight wells) [1]: exhibited activity | activity against YFM (scored based on mortality) [2]: exhibited activity

N#Cc1ccc(C(=O)Nc2cc(NC(=O)[C@H]3[C@H](c4cc(Cl)cc(Cl)c4)C3(Cl)Cl)ccc2Cl)c(F)c1 (racemic) [F71, trans-rac-N-(2-Chloro-5-(2,2-dichloro-3-(3,5-dichlorophenyl)cyclopropane-1-carboxamido)phenyl)-4-cyano-2-fluorobenzamide]
activity against BAW (percent mortality, averaged over eight wells) [1]: exhibited activity | activity against YFM (scored based on mortality) [2]: exhibited activity

N#Cc1ccc(C(=O)Nc2cc(NC(=O)[C@H]3[C@H](c4cc(Cl)cc(Cl)c4)C3(Cl)Cl)ccc2Cl)cc1F (racemic) [F72, trans-rac-N-(2-Chloro-5-(2,2-dichloro-3-(3,5-dichlorophenyl)cyclopropane-1-carboxamido)phenyl)-4-cyano-3-fluorobenzamide]
activity against BAW (percent mortality, averaged over eight wells) [1]: exhibited activity | activity against YFM (scored based on mortality) [2]: exhibited activity
